Converted amounts (≈) assume the structure as drawn.

Data on 1 molecule can be found in US4435583A, “2-Halo-substituted monic acid A useful as antibacterial compounds” (Beecham Group p.l.c., priority 1981, dated 1984).

Assay type in all cases: cell-based
Experiment [1] relates to M. suipneumoniae J2206/183b. Description: In vitro anti-mycoplasmal MIC. Conditions: Friis broth, 0.9% agarose, 6 days, 37° C.
The test system of experiment [2] is M. suipneumoniae NCTC 10110. Description: In vitro anti-mycoplasmal MIC. To be noted: Friis broth, 0.9% agarose, 6 days, 37° C.
For experiment [3], the system named is M. suipneumoniae ATCC 25095. Description: In vitro anti-mycoplasmal MIC. Conditions: Friis broth, 0.9% agarose, 6 days, 37° C.
The test system of the next experiment is M. suipneumoniae JF435. Description: In vitro anti-mycoplasmal MIC. To be noted: Friis broth, 0.9% agarose, 6 days, 37° C.
The subject of a further experiment is M. suipneumoniae TAM 6N. As to the kind of experiment: In vitro anti-mycoplasmal MIC. To be noted: Friis broth, 0.9% agarose, 6 days, 37° C.
The test system of the next experiment is M. hyorhinis ATCC 23234. Description: In vitro anti-mycoplasmal MIC. Conditions: Mesomycoplasma hyorhinis, ATCC23234, 144 h, Friis broth, 0.9% agarose, 6 days, 37° C.
A further experiment concerns M. suipneumoniae Str.11. Description: In vitro anti-mycoplasmal MIC. Conditions: Friis broth, 0.9% agarose, 6 days, 37° C.
Experiment [4] relates to M. bovigenitalium ATCC 14173. As to the kind of experiment: In vitro anti-mycoplasmal MIC. To be noted: 144 h, Friis broth, 0.9% agarose, 6 days, 37° C.
The test system of another experiment is M. hyorhinis ATCC 25021. As to the kind of experiment: In vitro anti-mycoplasmal MIC. To be noted: Mesomycoplasma hyorhinis, ATCC25021, 144 h, Friis broth, 0.9% agarose, 6 days, 37° C.
In experiment [5] the test system is M. hyosynoviae ATCC 25591. As to the kind of experiment: In vitro anti-mycoplasmal MIC. Conditions: 144 h, Friis broth, 0.9% agarose, 6 days, 37° C.
A further experiment concerns M. pneumoniae ATCC 15492. As to the kind of experiment: In vitro anti-mycoplasmal MIC. Conditions: Mycoplasmoides pneumoniae, ATCC15492, 144 h, Friis broth, 0.9% agarose, 6 days, 37° C., read-out: MIC.
The test system of another experiment is M. gallisepticum S6. As to the kind of experiment: In vitro anti-mycoplasmal MIC. To be noted: Mycoplasmoides gallisepticum, 144 h, Friis broth, 0.9% agarose, 6 days, 37° C., read-out: MIC.
The test system of another experiment is M. bovis NCTC 10131. Description: microbe, parasite or virus in culture. Conditions: Mycobacterium tuberculosis variant bovis, NCTC10131, 144 h.
In experiment [6] the test system is M. suipneumoniae PW/C/210. Description: In vitro anti-mycoplasmal MIC. To be noted: Mesomycoplasma hyopneumoniae, 144 h, Friis broth, 0.9% agarose, 6 days, 37° C.
The subject of the next experiment is M. suipneumoniae MS16. As to the kind of experiment: In vitro anti-mycoplasmal MIC. Conditions: Mesomycoplasma hyopneumoniae, MS16, 144 h, Friis broth, 0.9% agarose, 6 days, 37° C.
A further experiment relates to M. suipneumoniae NB12. As to the kind of experiment: In vitro anti-mycoplasmal MIC. Conditions: Friis broth, 0.9% agarose, 6 days, 37° C.
The next experiment deals with M. suipneumoniae LABER. As to the kind of experiment: In vitro anti-mycoplasmal MIC. Conditions: Mesomycoplasma hyopneumoniae, 144 h, Friis broth, 0.9% agarose, 6 days, 37° C.
The next experiment deals with M. dispar NCTC 10125. As to the kind of experiment: In vitro anti-mycoplasmal MIC. Conditions: 144 h, Friis broth, 0.9% agarose, 6 days, 37° C.

For the molecule `CCOC(=O)C(F)=C(C)CC1OCC(CC2OC2C(C)C(C)O)C(O)C1O` [Example 1, Ethyl-4-[5S-(2S,3S-epoxy-5S-hydroxy-4S-methylhexyl)-3R, 4R-dihydroxytetrahydropyran-2S-yl]-2-fluoro-3-methylbut-2(Z)-enoate], the MIC in experiment [1] was 0.5 µg/mL (≈ 1.28 µM); in experiment [2], 0.5 µg/mL (≈ 1.28 µM); in [3] it was 0.5 µg/mL (≈ 1.28 µM); with M. suipneumoniae JF435 it was 0.5 µg/mL (≈ 1.28 µM); against M. suipneumoniae TAM 6N, 0.5 µg/mL (≈ 1.28 µM); against M. hyorhinis ATCC 23234, 0.25 µg/mL (≈ 0.64 µM). Moreover, the MIC in the experiment on M. suipneumoniae Str.11 was determined as 0.5 µg/mL (≈ 1.28 µM); in [4], 0.025 µg/mL (≈ 0.064 µM); in the experiment on M. hyorhinis ATCC 25021 it was 0.25 µg/mL (≈ 0.64 µM); in [5], 0.25 µg/mL (≈ 0.64 µM); with M. pneumoniae ATCC 15492 it was 5 µg/mL (≈ 12.8 µM); in the experiment on M. gallisepticum S6, 10 µg/mL (≈ 25.6 µM). For the same molecule, the MIC with M. bovis NCTC 10131 was found to be 0.025 µg/mL (≈ 0.064 µM); in experiment [6], 0.25 µg/mL (≈ 0.64 µM); with M. suipneumoniae MS16 it was 0.25 µg/mL (≈ 0.64 µM); in the experiment with M. suipneumoniae NB12, 0.5 µg/mL (≈ 1.28 µM); in the experiment on M. suipneumoniae LABER, 0.25 µg/mL (≈ 0.64 µM); in the experiment on M. dispar NCTC 10125, 0.1 µg/mL (≈ 0.256 µM).
